# Results taken from ChEMBL document CHEMBL1147361, “Microbial transformation of L-696,474, a novel cytochalasin as an inhibitor of HIV-1 protease” (J Nat Prod, 1993).
# Target: Protease (Human immunodeficiency virus 1, UniProt Q9YQ12)
# Assay: Inhibition of HIV1 protease
# Sequence of Protease (Q9YQ12 whole entry): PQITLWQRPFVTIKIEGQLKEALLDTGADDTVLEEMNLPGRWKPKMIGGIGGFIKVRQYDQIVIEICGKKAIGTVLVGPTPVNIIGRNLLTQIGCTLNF
row,Compound,IC50 [µM]
1,C=C1[C@@H](C)[C@H]2[C@H](Cc3ccccc3)NC(=O)[C@]23[C@H](OC(C)=O)/C=C/[C@@H](C)C[C@@](O)(CO)C/C=C/[C@H]3[C@@H]1O,45
2,C=C1[C@@H](C)[C@H]2[C@H](Cc3ccc(O)c(O)c3)NC(=O)[C@]23[C@H](OC(C)=O)/C=C/[C@@H](C)C[C@@H](CO)C/C=C/[C@H]3[C@@H]1O,> 50
3,C=C1[C@@H](C)[C@H]2[C@H](Cc3ccccc3)NC(=O)[C@]23[C@H](OC(C)=O)/C=C/[C@@H](C)C[C@@H](C)C/C=C/[C@H]3[C@@H]1O,3
4,C=C1[C@@H](C)[C@H]2[C@H](Cc3ccc(O)cc3)NC(=O)[C@]23[C@H](OC(C)=O)/C=C/[C@@H](C)C[C@@H](CO)C/C=C/[C@H]3[C@@H]1O,35
5,C=C1[C@@H](C)[C@H]2[C@H](Cc3ccccc3)NC(=O)[C@]23[C@H](OC(C)=O)/C=C/[C@@H](C)C[C@@H](CO)C/C=C/[C@H]3[C@@H]1O,22
6,C=C1[C@@H](C)[C@H]2[C@H](Cc3cccc(O)c3)NC(=O)[C@]23[C@H](OC(C)=O)/C=C/[C@@H](C)C[C@@](O)(CO)C/C=C/[C@H]3[C@@H]1O,> 50
7,C=C1[C@@H](C)[C@H]2[C@H](Cc3cccc(O)c3)NC(=O)[C@]23[C@H](OC(C)=O)/C=C/[C@@H](C)C[C@@H](CO)C/C=C/[C@H]3[C@@H]1O,38
